Source: patent publication US20260021147A1, “COMPOSITIONS AND METHODS FOR TREATING INFLAMMATORY DISEASE” (The Regents of the University of Michigan, priority 2022, published 2026)
“Also recorded” adds a separate entry of the source.

Key:
intestinal microbiota [1] = experiment: Quantification of fecal bacterial density by 16S rRNA gene qPCR; assay type: in vivo, mice; details: 0.625 g/L meropenem in drinking water
Experimental: Genomic DNA was isolated from stool as described above. qPCR was performed as previously described (Yang et al., 2015). In brief, 16S rRNA gene sequences were amplified from total fecal DNA using the primers 926F (5′-[…]-3′) and 1062R (5′-[…]-3′). Real-time PCR was carried out in 96-well optical plates on QuantStudio Flex 6 RT PCR (Thermo Fisher) and KAPA SYBR FAST Master Mix (Roche). The PCR conditions included one initial denaturing step of 10 min at 95° C. and 40 cycles of 95° C. for 20 sec and 60° C. for 1 min. Melting-curve analysis was performed after amplification. To determine bacterial density, a plasmid with a 16S rRNA gene of a murine Blautia isolate was generated in the pCR4 backbone and used as a standard.

colonic mucus layer = experiment: Colonic mucus thickness by PAS staining; assay type: in vivo, mice; details: allogeneic mice, day 18
From the text: (§1) Pathology scores were quantified by a blinded pathologist. […] Sections were imaged using an Aperio AT2.

intestinal microbiota [2] = experiment: Fecal microbiome of 44 allo-HSCT patients, pre-HSCT versus day 14; assay type: in vivo, human; details: pre-HSCT vs day 14, paired analysis
Experimental: Fecal samples which were collected from patients and mice and colonic mucosal samples, which were collected from mice were weighed before DNA isolation. In brief, genomic DNA was isolated using the QIAamp DNA mini kit (51306, Qiagen) according to the manufacturer's protocol that was modified to include an intensive bead-beating lysis step. The V4 region of 16S rRNA gene was amplified by PCR from 100 ng of each of extracted and purified genomic DNA using 515 forward and 806 reverse primer pairs (Caporaso et al., 2012). The quality and quantity of the barcoded amplicons were assessed on an Agilent 4200 TapeStation system (Agilent) and Qubit Fluorometer (Thermo Fisher Scientific), and libraries were prepared after pooling at equimolar ratios. […]
Sequencing data from paired-end reads were de-multiplexed using QIIME 2 (Caporaso et al., 2010). Merging of paired-end reads, dereplicating, and length filtering was performed using VSEARCH 2.17.1 (Rognes et al., 2016). […] Weighted UniFrac distances (Lozupone et al., 2011) were determined using QIIME 2, visualized using principal coordinate analysis, and evaluated for statistical significance using permutational multivariate analysis of variance (PERMANOVA) testing. […] Paired samples were analyzed using the Wilcoxon signed rank test with adjustment for multiple comparisons.

allo-HSCT patients = experiment: Retrospective study of 295 allo-HSCT patients: acute GvHD by antibiotic exposure; assay type: in vivo, human; details: until day 100; antibiotic exposure days −10 to 30
Experimental: 295 patients with acute myeloid leukemia (AML) or myelodysplastic syndrome (MDS) underwent allogeneic hematopoietic stem cell transplantation (allo-HSCT) with fludarabine plus busulfan as conditioning therapy and tacrolimus and methotrexate as GvHD prophylaxis from 2011 and 2016 at MD Anderson Cancer Center and were analyzed retrospectively. Patients were classified by antibiotic exposures, including those who received neither cefepime nor meropenem, those who received cefepime alone, those who received meropenem alone and those who received both cefepime and meropenem from day −10 to day after allo-HSCT. Acute GvHD was diagnosed by clinical and/or pathological findings, and graded according to standard criteria (Przepiorka et al., 1995).

MLNs = experiment: Microbiologic analysis of bacterial translocation to mesenteric lymph nodes; assay type: in vivo; details: allogeneic mice, day 18
Experimental: Mesenteric lymph nodes (MLNs) were harvested from mice and homogenized in PBS and cultured anaerobically on BHI plates containing yeast extract and 5% sterilized rumen fluid (Fisher Scientific) and Columbia blood agar plates (BD) for 4 days at 37° C. Colony-forming units (CFUs) were counted and adjusted per organ. Bacteria were identified by MALDI Biotyper.

[3] = Meropenem concentration in stool during drinking water administration; assay type: in vivo; details: 48 hours after starting meropenem treatment, normal SPF mice
Experimental: (§2) In a murine model with a mucin-deficient mutate strain of BT, piperacillin/tazobactam was given at a concentration of 3.2 g/L in combination with vancomycin and metronidazole dosed 1.5 mg daily by oral gavage from days −16 to −12 relative to transplant.
To further explore the relationship between meropenem and intestinal GvHD, the effects of meropenem on GvHD was examined in a mouse model of allo-HSCT. A method of administering meropenem to mice that mimicked the effects of meropenem on the intestinal microbiome of patients was developed. Meropenem concentrations in the cecal lumen of mice were quantified 4, 8, 24, 48 and 96 hours after subcutaneous injection. […] Drinking water was then evaluated as a means of continuously administering meropenem to mice, using bacterial density quantified by 16S ribosomal RNA (16S rRNA) gene quantitative PCR (qPCR) to gauge reductions of the intestinal microbiota.

[4] = system: allogeneic mice (B6D2F1 recipients of B6 donor cells); experiment: Murine GvHD model (allo-HSCT): survival and GvHD histology; assay type: in vivo
Experimental: as §2
D-(+)-xylose (X3877, Sigma-Aldrich) or D-(+)-glucose (G8270, Sigma-Aldrich) was dissolved in phosphate buffer pH 8.0 with meropenem or in water without meropenem and given at a concentration of 0.5% from days 13 to 28 after allo-HSCT.
Mice were transplanted as previously described (Hayase et al., 2017).
as §1

[5] = Short chain fatty acids profiling of mouse feces by IC-MS; assay type: in vivo, mice; details: meropenem-treated allo-HSCT mice, day 18
Experimental: To determine the relative abundance of short chain fatty acids in mouse feces samples, extracts were prepared and analyzed by ultra-high resolution mass spectrometry (HRMS). Fecal pellets were homogenized with a Precellys Tissue Homogenizer. Metabolites were extracted using 1 mL ice-cold 0.1% Ammonium hydroxide in 80/20 (v/v) methanol/water. Extracts were centrifuged at 17,000 g for 5 min at 4° C., and supernatants were transferred to clean tubes, followed by evaporation to dryness under nitrogen. Dried extracts were reconstituted in deionized water, and 5 μL was injected for analysis by IC-MS. IC mobile phase A (MPA; weak) was water, and mobile phase B (MPB; strong) was water containing 100 mM KOH. A Thermo Scientific Dionex ICS-5000+ system included a Thermo IonPac AS11 column (4 μm particle size, 250×2 mm) with column compartment kept at 30° C. The autosampler tray was chilled to 4° C. The mobile phase flow rate was 360 μL/min, and the gradient elution program was: 0-5 min, 1% MPB; 5-25 min, 1-35% MPB; 25-39 min, 35-99% MPB; 39-49 min, 99% MPB; 49-50, 99-1% MPB. The total run time was 50 min. To assist the desolvation for better sensitivity, methanol was delivered by an external pump and combined with the eluent via a low dead volume mixing tee. Data were acquired using a Thermo Orbitrap Fusion Tribrid Mass Spectrometer under ESI negative ionization mode at a resolution of 240,000. […]

With `C[C@@H](O)[C@H]1C(=O)N2C(C(=O)O)=C(S[C@@H]3CN[C@H](C(=O)N(C)C)C3)[C@H](C)[C@H]12` [meropenem] the “reduction in fecal bacterial density” value (intestinal microbiota [1]) was “one-log reduction”, the colonic mucus layer (colonic mucus layer) was “significantly thinned colonic mucus layer; also recorded: thinning of the colonic mucus layer” and the “change of genus Bacteroides from baseline” value (intestinal microbiota [2]) was “significant expansion of bacteria from the genus Bacteroides”. The “incidence of acute intestinal GvHD” value (allo-HSCT patients) was “increased”, the “bacterial loads in MLNs” value (MLNs) was “Higher bacterial loads” and the “meropenem concentration in stool” value [3] was 0.11 ± 0.07 µg/g. For the same molecule, the “GvHD histological scores in the colon” value ([4]; meropenem days 3 to 15, day 18, vs control allogeneic mice) was “significantly higher GvHD histological scores in the colon”, the overall survival ([4]; meropenem in drinking water days 3 to 15, vs control allogeneic mice) was “significantly worsened survival” and the “fecal levels of SCFAs” value [5] was “reduced fecal levels of SCFAs”.
